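Where inhibition never reached the appropriate level, the endpoint shown equals the highest concentration tested. Otherwise, values were interpolated linearly from a five-concentration, 48-hour dose response in 96-well plates. At the GI50, growth is halved.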 Activity calls are given as the source filed them. Cut-off read from the data, not from the text of the source: active = GI50 up to about 1.1 µM and inactive = higher.
Assays:
Test in all cases: growth of human tumour cells (NCI), 48 h
[1] = tested on: 786-0
[2] = tested on: A498
[3] = tested on: A549
[4] = tested on: ACHN
[5] = tested on: CAKI-1
[6] = tested on: CCRF-CEM
[7] = tested on: COLO 205
[8] = tested on: DLD-1
[9] = tested on: DMS-114
[10] = tested on: DMS-273
[11] = tested on: HCT-116
[12] = tested on: HCT-15
[13] = tested on: HL-60
[14] = tested on: HOP-18
[15] = tested on: HOP-62
[16] = tested on: HOP-92
[17] = tested on: HT-29
[18] = tested on: IGROV-1
[19] = tested on: K562
[20] = tested on: KM-20L2
[21] = tested on: KM12
[22] = tested on: LOX IMVI
[23] = tested on: LXFL 529
[24] = tested on: M14
[25] = tested on: M19-MEL
[26] = tested on: MOLT-4
[27] = tested on: Malme-3M
[28] = tested on: NCI-H226
[29] = tested on: NCI-H23
[30] = tested on: NCI-H460
[31] = tested on: NCI-H522
[32] = tested on: OVCAR-3
[33] = tested on: OVCAR-4
[34] = tested on: OVCAR-5
[35] = tested on: OVCAR-8
[36] = tested on: RPMI-8226
[37] = tested on: RXF 393
[38] = tested on: SF-268
[39] = tested on: SF-295
[40] = tested on: SF-539
[41] = tested on: SK-MEL-28
[42] = tested on: SK-MEL-2
[43] = tested on: SK-MEL-5
[44] = tested on: SK-OV-3
[45] = tested on: SN12C
[46] = tested on: SNB-75
[47] = tested on: SNB-78
[48] = tested on: SR
[49] = tested on: SW-620
[50] = tested on: TK-10
[51] = tested on: U-251
[52] = tested on: UACC-257
[53] = tested on: UACC-62
[54] = tested on: UO-31
[55] = tested on: EKVX
[56] = tested on: HCC 2998
[57] = tested on: SNB-19
[58] = tested on: XF498

## O=Cc1c(O)ccc2ccc(O)c(-c3c(O)ccc4ccc(O)cc34)c12
[1]
  GI50: > 100 µM (inactive)
[2]
  GI50: 43.2 µM (inactive)
[3]
  GI50: > 100 µM (inactive)
[4]
  GI50: > 100 µM (inactive)
[5]
  GI50: > 100 µM (inactive)
[6]
  GI50: 99.3 µM (inactive)
[7]
  GI50: > 100 µM (inactive)
[8]
  GI50: > 100 µM (inactive)
[9]
  GI50: 96.2 µM (inactive)
[10]
  GI50: > 100 µM (inactive)
[11]
  GI50: > 100 µM (inactive)
[12]
  GI50: > 100 µM
[13]
  GI50: > 100 µM (inactive)
[14]
  GI50: 49.5 µM (inactive)
[15]
  GI50: > 100 µM (inactive)
[16]
  GI50: 66.7 µM (inactive)
[17]
  GI50: > 100 µM (inactive)
[18]
  GI50: > 100 µM (inactive)
[19]
  GI50: > 100 µM (inactive)
[20]
  GI50: > 100 µM (inactive)
[21]
  GI50: 98.4 µM (inactive)
[22]
  GI50: > 100 µM (inactive)
[23]
  GI50: 75.3 µM (inactive)
[24]
  GI50: > 100 µM (inactive)
[25]
  GI50: > 100 µM (inactive)
[26]
  GI50: > 100 µM (inactive)
[27]
  GI50: 37.5 µM (inactive)
[28]
  GI50: 28.6 µM (inactive)
[29]
  GI50: > 100 µM (inactive)
[30]
  GI50: > 100 µM (inactive)
[31]
  GI50: 80.9 µM (inactive)
[32]
  GI50: 48.2 µM (inactive)
[33]
  GI50: > 100 µM (inactive)
[34]
  GI50: > 100 µM (inactive)
[35]
  GI50: > 100 µM (inactive)
[36]
  GI50: > 100 µM (inactive)
[37]
  GI50: 44.4 µM (inactive)
[38]
  GI50: > 100 µM (inactive)
[39]
  GI50: 53.1 µM (inactive)
[40]
  GI50: 52.7 µM (inactive)
[41]
  GI50: > 100 µM (inactive)
[42]
  GI50: 31.8 µM (inactive)
[43]
  GI50: > 100 µM (inactive)
[44]
  GI50: > 100 µM (inactive)
[45]
  GI50: > 100 µM (inactive)
[46]
  GI50: 88.7 µM (inactive)
[47]
  GI50: > 100 µM (inactive)
[48]
  GI50: 67.9 µM (inactive)
[49]
  GI50: > 100 µM (inactive)
[50]
  GI50: > 100 µM (inactive)
[51]
  GI50: > 100 µM (inactive)
[52]
  GI50: > 100 µM (inactive)
[53]
  GI50: 77.8 µM (inactive)
[54]
  GI50: > 100 µM (inactive)

## O=C(Nc1ccccc1)c1cccc([N+](=O)[O-])c1
[1]
  GI50: > 100 µM (inactive)
[2]
  GI50: > 100 µM (inactive)
[3]
  GI50: > 100 µM (inactive)
[4]
  GI50: > 100 µM (inactive)
[5]
  GI50: > 100 µM (inactive)
[6]
  GI50: > 100 µM (inactive)
[7]
  GI50: > 100 µM (inactive)
[9]
  GI50: 92.9 µM (inactive)
[10]
  GI50: > 100 µM (inactive)
[55]
  GI50: > 100 µM (inactive)
[56]
  GI50: > 100 µM (inactive)
[11]
  GI50: > 100 µM (inactive)
[12]
  GI50: > 100 µM
[14]
  GI50: > 100 µM (inactive)
[15]
  GI50: > 100 µM (inactive)
[16]
  GI50: > 100 µM (inactive)
[17]
  GI50: > 100 µM (inactive)
[18]
  GI50: > 100 µM (inactive)
[19]
  GI50: > 100 µM (inactive)
[20]
  GI50: 37.5 µM (inactive)
[25]
  GI50: > 100 µM (inactive)
[26]
  GI50: 60.8 µM (inactive)
[27]
  GI50: > 100 µM (inactive)
[32]
  GI50: > 100 µM (inactive)
[35]
  GI50: > 100 µM (inactive)
[36]
  GI50: 39.9 µM (inactive)
[38]
  GI50: > 100 µM (inactive)
[40]
  GI50: > 100 µM (inactive)
[41]
  GI50: > 100 µM (inactive)
[43]
  GI50: > 100 µM (inactive)
[45]
  GI50: > 100 µM (inactive)
[57]
  GI50: > 100 µM (inactive)
[46]
  GI50: > 100 µM (inactive)
[47]
  GI50: > 100 µM (inactive)
[49]
  GI50: > 100 µM (inactive)
[51]
  GI50: > 100 µM (inactive)
[53]
  GI50: > 100 µM (inactive)
[58]
  GI50: > 100 µM (inactive)

## Nc1ccn(CCCC(c2ccccc2)P(=O)(O)O)c(=O)n1 (centres undefined)
[1]
  GI50: > 100 µM (inactive)
[2]
  GI50: > 100 µM (inactive)
[3]
  GI50: > 100 µM (inactive)
[4]
  GI50: > 100 µM (inactive)
[5]
  GI50: > 100 µM (inactive)
[6]
  GI50: > 100 µM (inactive)
[7]
  GI50: > 100 µM (inactive)
[8]
  GI50: > 100 µM (inactive)
[9]
  GI50: > 100 µM (inactive)
[10]
  GI50: > 100 µM (inactive)
[56]
  GI50: > 100 µM (inactive)
[11]
  GI50: > 100 µM (inactive)
[12]
  GI50: > 100 µM
[13]
  GI50: > 100 µM (inactive)
[14]
  GI50: > 100 µM (inactive)
[15]
  GI50: > 100 µM (inactive)
[16]
  GI50: 91.4 µM (inactive)
[17]
  GI50: > 100 µM (inactive)
[18]
  GI50: > 100 µM (inactive)
[19]
  GI50: > 100 µM (inactive)
[20]
  GI50: > 100 µM (inactive)
[21]
  GI50: > 100 µM (inactive)
[22]
  GI50: > 100 µM (inactive)
[23]
  GI50: > 100 µM (inactive)
[24]
  GI50: > 100 µM (inactive)
[25]
  GI50: > 100 µM (inactive)
[27]
  GI50: > 100 µM (inactive)
[29]
  GI50: > 100 µM (inactive)
[30]
  GI50: > 100 µM (inactive)
[31]
  GI50: > 100 µM (inactive)
[32]
  GI50: > 100 µM (inactive)
[34]
  GI50: > 100 µM (inactive)
[35]
  GI50: > 100 µM (inactive)
[36]
  GI50: > 100 µM (inactive)
[38]
  GI50: > 100 µM (inactive)
[39]
  GI50: > 100 µM (inactive)
[40]
  GI50: > 100 µM (inactive)
[41]
  GI50: > 100 µM (inactive)
[42]
  GI50: > 100 µM (inactive)
[43]
  GI50: > 100 µM (inactive)
[44]
  GI50: > 100 µM (inactive)
[45]
  GI50: > 100 µM (inactive)
[57]
  GI50: > 100 µM (inactive)
[46]
  GI50: > 100 µM (inactive)
[47]
  GI50: > 100 µM (inactive)
[48]
  GI50: > 100 µM (inactive)
[49]
  GI50: > 100 µM (inactive)
[50]
  GI50: > 100 µM (inactive)
[51]
  GI50: > 100 µM (inactive)
[52]
  GI50: > 100 µM (inactive)
[53]
  GI50: > 100 µM (inactive)
[54]
  GI50: > 100 µM (inactive)
